Results: patent US8455004B2, “Primary composition comprising a lipophilic bioactive compound” (Nestec S.A., priority 2000, dated 2013)

Assay: Aqueous-phase analysis of the stability of lycopene (decomposition by light and oxygen)
Assay type: physicochemical
Protocol: It is known that light and oxygen cause lycopene to decompose. An aqueous-phase analysis of the stability of lycopene alone and of lycopene in combination with the whey protein according to the invention was carried out. After one day in the aqueous phase for lycopene alone, only 40% of the lycopene remains, whereas, with the whey, virtually 90% of it, remains.

Lycopene remaining after one day (one day): 40% | Lycopene remaining after two days (two days): virtually completely decomposed
SMILES: CC(C)=CCC/C(C)=C/C=C/C(C)=C/C=C/C(C)=C/C=C/C=C(C)/C=C/C=C(C)/C=C/C=C(\C)CCC=C(C)C [lycopene alone, lycopene]
